Laboratory results taken from paper PMC9585577, “Oxyresveratrol and Gnetol Glucuronide Metabolites: Chemical Production, Structural Identification, Metabolism by Human and Rat Liver Fractions, and In Vitro Anti-inflammatory Properties” (Journal of Agricultural and Food Chemistry, 2022).

Experiments:
[1] = system: IL-1β production in LPS-stimulated RAW 264.7 cells; experiment: IL-1β production (ELISA) in LPS-stimulated macrophages; type: cell-based, murine; settings: t-GN 10 and 50 μM, its glucuronides 50 and 200 μM, 24 h
Protocol: (§1) RAW 264.7 cells were cultured in DMEM containing 10% FBS and maintained in a humidified incubator set at 37 °C with 5% CO2. For all following assays, cells were subcultured at a density of 40 000 cells per well in 96 well culture plates with 200 μL of the above-described culture medium. After 24 h, cells were incubated with ORV, GN, and their glucuronide metabolites (5–200 μM) in RPMI medium supplemented with glutamine (4 mM) in the presence or absence of LPS (0.1 μg/mL) (200 μL final volume per well). For MTT, NO, ROS, IL-1β, and TNF-α (n = 4), each experiment was performed in triplicate separately.
(§2) At 24 h after seeding, RAW 264.7 cells were exposed to LPS (0.1 μg/mL) in the absence or presence of ORV, GN (10 and 50 μM), and their metabolites (50 and 200 μM). After 24 h of exposure, IL-1β and TNF-α concentrations were measured in culture media supernatants by ELISA sandwich assay following the instructions of the manufacturer.

RAW 264.7 cells = experiment: MTT cell viability; type: cell-based, murine; settings: 24 h, 5–200 μM tested
Protocol: as §1
The MTT colorimetric assay was performed to assess the cell viability of cells after being treated with ORV, GN, and their glucuronide metabolites. After 24 h of treatment, RAW 264.7 cells were incubated with 0.5 mg/mL MTT during 3 h at 37 °C. The formazan crystals formed were dissolved with 100 μL of dimethyl sulfoxide (DMSO), and the plate was then incubated in the darkness for 30 min. Finally, the absorbance was measured at 595 nm using a microplate reader (FLUOstar Optima, BMG Labtech).

[2] = system: ROS production in LPS-stimulated RAW 264.7 cells; experiment: Intracellular ROS measurement (DCFH2-DA) in LPS-stimulated macrophages; type: cell-based, murine
Protocol: as §1
Generation of intracellular ROS in cells was analyzed using the fluorometric probe DCFH2-DA. After 24 h of treatment with GN, ORV, and their glucuronide metabolites, cells were washed with phosphate-buffered saline (PBS) and then 150 μL of DCFH2-DA (10 μM) was added. After 30 min at 37 °C, the fluorescence intensity was quantified using a microplate reader (FLUOstar Optima, BMG Labtech) with a wavelength of excitation and emission of 485 and 520 nm, respectively. All experiments were performed in darkness. Results were expressed as ROS production (fluorescence intensity expressed as arbitrary units) compared to cells treated only with LPS (positive control).

[3] = system: NO production in LPS-stimulated RAW 264.7 cells; experiment: NO measurement (Griess) in LPS-stimulated macrophages; type: cell-based, murine; settings: between 25 and 50 μM (summary statement)
Protocol: as §1
After 24 h of treatment of RAW 264.7 cells with ORV, GN, and their glucuronide metabolites, 70 μL of supernatant was mixed with 70 μL of Griess solution. After 15 min in darkness, the absorbance was measured at 550 nm using a microplate reader (FLUOstar Optima, BMG Labtech). A calibration curve of NO2 (0–100 μM) was used for quantification. Data were expressed as NO production (μM) compared to cells treated only with LPS (positive control).

BV-2 microglial cells = system: BV-2 microglial cells; design: method as in PMID 23807809; settings: 5 and 10 μM, BV-2 microglial cells ref 36; cited from earlier work
[4] = design: method as in PMID 25939395; settings: rats, intravenous and oral administration ref 2; cited from earlier work
[5] = system: TNF-α production in LPS-stimulated RAW 264.7 cells; experiment: TNF-α production (ELISA) in LPS-stimulated macrophages; type: cell-based, murine; settings: t-GN 10 and 50 μM, its glucuronides 50 and 200 μM, 24 h
Protocol: as §1, §2

For `Oc1cc(O)cc(/C=C/c2c(O)cccc2O)c1` [t-GN, trans-2′,3,5,6′-tetrahydroxystilbene], which “reduction of IL-1β” value [1] is on record?
Its value is “ineffective”.

What about the “concentration from which toxic (MTT)” value (RAW 264.7 cells) of the same compound?
Its value is no less than 100 µM.

And the “counteracting ROS production” value ([2]; GN, concentration not stated (5–50 μM tested), 24 h, LPS)?
The value was “more than 55%”.

And the “decrease of ROS production” value ([2]; between 25 and 50 μM (summary statement))?
The value was “more than 50%”.

And the “decrease of NO production” value [3]?
Its value is “more than 50%”.

What about the cytotoxic effect (BV-2 microglial cells) of the same compound?
The cytotoxic effect was “no cytotoxic effect”.

What about the calculated bioavailability [4] of the same compound?
The calculated bioavailability was 6.6%.

And the “reduction of TNF-α” value [5]?
Its value is “ineffective”.
